The values below are quoted from earlier work in patent US20160286792A1, “METHOD AND SYSTEM FOR PEST CONTROL” (priority 2013, published 2016).

Like-named read-outs stand apart in the source and are kept apart here.

Series [1] has as its system termites.
The subject of series [2] is humans.
The conditions of series [3]: aqueous, at 25 degrees.

Regarding `Cc1c(COC(=O)[C@@H]2[C@H](/C=C(\Cl)C(F)(F)F)C2(C)C)cccc1-c1ccccc1` (racemic) [Bifenthrin], the length of protection in series [1] (applied at 0.05% concentration) is on record as 10 years; in series [1] (applied at 0.1% concentration), “at least 10 years”; in series [1] (applied at 0.25% concentration), 3 years.

With `O=[N+]([O-])NC1=NCCN1Cc1ccc(Cl)nc1` [Imidacloprid], the length of protection entry in series [1] (applied at 0.25% concentration) was “up to 3 years”. Moreover, the toxicity to humans entry in series [2] is on record as “low to medium toxicity”.

`CCOP(=S)(OCC)Oc1nc(Cl)c(Cl)cc1Cl` [chlorpyrifos, Chlorpyrifos]: the length of protection result in series [1] (concentration varies depending on the brand) is on record as “up to 5 years”.

On to calcium sulphate dihydrate [gypsum], for which, in series [3], the “concentration of saturated solution” value is 2000 to 2500 µg/mL.
